Measurements published in PubChem BioAssay (NCI).
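Dose response: 5 concentrations. Exposure: 48 h. Format: 96-well plates. Endpoint: linear interpolation; highest concentration if not reached. GI50: concentration for 50% inhibition of growth. At the TGI there is no net growth.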

Legend:
Assay in all cases: NCI tumour cell line growth inhibition, 48 h
786-0 renal = tested on: 786-0 renal
A498 renal = tested on: A498 renal
A549 NSCLC = tested on: A549 NSCLC
ACHN renal = tested on: ACHN renal
CAKI-1 renal = tested on: CAKI-1 renal
CCRF-CEM leukemia = tested on: CCRF-CEM leukemia
COLO 205 colon = tested on: COLO 205 colon
DU-145 prostate = tested on: DU-145 prostate
EKVX NSCLC = tested on: EKVX NSCLC
HCC-2998 colon = tested on: HCC-2998 colon
HCT-116 colon = tested on: HCT-116 colon
HCT-15 colon = tested on: HCT-15 colon
HL-60(TB) leukemia = tested on: HL-60(TB) leukemia
HOP-62 NSCLC = tested on: HOP-62 NSCLC
HOP-92 NSCLC = tested on: HOP-92 NSCLC
HS 578T breast = tested on: HS 578T breast
HT29 colon = tested on: HT29 colon
IGROV1 ovarian = tested on: IGROV1 ovarian
K-562 leukemia = tested on: K-562 leukemia
KM12 colon = tested on: KM12 colon
LOX IMVI melanoma = tested on: LOX IMVI melanoma
M14 melanoma = tested on: M14 melanoma
MALME-3M melanoma = tested on: MALME-3M melanoma
MCF7 breast = tested on: MCF7 breast
MDA-MB-231 breast = tested on: MDA-MB-231 breast
MDA-MB-435 = tested on: MDA-MB-435
MDA-N = tested on: MDA-N
MOLT-4 leukemia = tested on: MOLT-4 leukemia
NCI-H226 lung = tested on: NCI-H226 lung
NCI-H23 lung = tested on: NCI-H23 lung
NCI-H460 lung = tested on: NCI-H460 lung
NCI-H522 lung = tested on: NCI-H522 lung
NCI/ADR-RES ovarian = tested on: NCI/ADR-RES ovarian
OVCAR-3 ovarian = tested on: OVCAR-3 ovarian
OVCAR-4 ovarian = tested on: OVCAR-4 ovarian
OVCAR-5 ovarian = tested on: OVCAR-5 ovarian
OVCAR-8 ovarian = tested on: OVCAR-8 ovarian
PC-3 prostate = tested on: PC-3 prostate
RPMI-8226 leukemia = tested on: RPMI-8226 leukemia
RXF 393 renal = tested on: RXF 393 renal
SF-268 CNS = tested on: SF-268 CNS
SF-295 CNS = tested on: SF-295 CNS
SF-539 CNS = tested on: SF-539 CNS
SK-MEL-2 melanoma = tested on: SK-MEL-2 melanoma
SK-MEL-28 melanoma = tested on: SK-MEL-28 melanoma
SK-MEL-5 melanoma = tested on: SK-MEL-5 melanoma
SK-OV-3 ovarian = tested on: SK-OV-3 ovarian
SN12C renal = tested on: SN12C renal
SNB-19 CNS = tested on: SNB-19 CNS
SNB-75 CNS = tested on: SNB-75 CNS
SR leukemia = tested on: SR leukemia
SW-620 colon = tested on: SW-620 colon
T-47D breast = tested on: T-47D breast
TK-10 renal = tested on: TK-10 renal
U251 CNS = tested on: U251 CNS
UACC-257 melanoma = tested on: UACC-257 melanoma
UACC-62 melanoma = tested on: UACC-62 melanoma
UO-31 renal = tested on: UO-31 renal

CC(C)=Cc1cc2c(cc1O)CCC1C2CC[C@@]2(C)C1CC[C@@H]2O (some centres undefined)
TGI (786-0 renal): 25 µM | TGI (A498 renal): 29.9 µM | TGI (A549 NSCLC): 27.5 µM | TGI (ACHN renal): 29.5 µM | TGI (CAKI-1 renal): 29.5 µM | TGI (CCRF-CEM leukemia): 40.8 µM | TGI (COLO 205 colon): 32.7 µM | TGI (DU-145 prostate): 27.7 µM | TGI (EKVX NSCLC): 31.5 µM | TGI (HCC-2998 colon): 31.8 µM | TGI (HCT-116 colon): 23.4 µM | TGI (HCT-15 colon): 24.4 µM | TGI (HL-60(TB) leukemia): 37.5 µM | GI50 (HOP-62 NSCLC): 15 µM | TGI (HOP-62 NSCLC): 31.7 µM | TGI (HOP-92 NSCLC): 42.1 µM | TGI (HS 578T breast): 65.6 µM | TGI (HT29 colon): 30.8 µM | TGI (IGROV1 ovarian): 29.9 µM | TGI (K-562 leukemia): 13.8 µM | TGI (KM12 colon): 25.3 µM | TGI (LOX IMVI melanoma): 16.1 µM | TGI (M14 melanoma): 22.8 µM | TGI (MALME-3M melanoma): 22.5 µM | TGI (MCF7 breast): 37.4 µM | TGI (MDA-MB-231 breast): 35.2 µM | GI50 (MDA-MB-435): 3.02 µM | TGI (MDA-MB-435): 11.7 µM | TGI (MDA-N): 7.14 µM | TGI (MOLT-4 leukemia): 25.3 µM | TGI (NCI-H226 lung): 26.1 µM | TGI (NCI-H23 lung): 35.2 µM | TGI (NCI-H460 lung): 26.1 µM | TGI (NCI-H522 lung): 31.2 µM | TGI (NCI/ADR-RES ovarian): 28 µM | GI50 (OVCAR-3 ovarian): 5.27 µM | TGI (OVCAR-3 ovarian): 19.9 µM | TGI (OVCAR-4 ovarian): 61 µM | TGI (OVCAR-5 ovarian): 31.8 µM | TGI (OVCAR-8 ovarian): 40.7 µM | TGI (PC-3 prostate): 28.6 µM | TGI (RPMI-8226 leukemia): 26 µM | TGI (RXF 393 renal): 20.9 µM | TGI (SF-268 CNS): 36.2 µM | TGI (SF-295 CNS): 7.57 µM | GI50 (SF-539 CNS): 7.6 µM | TGI (SF-539 CNS): 22.4 µM | TGI (SK-MEL-2 melanoma): 32.7 µM | TGI (SK-MEL-28 melanoma): 30.2 µM | TGI (SK-MEL-5 melanoma): 19.3 µM | TGI (SK-OV-3 ovarian): 35 µM | TGI (SN12C renal): 30 µM | TGI (SNB-19 CNS): 24.4 µM | TGI (SNB-75 CNS): 24.8 µM | TGI (SR leukemia): 6.94 µM | TGI (SW-620 colon): 23.6 µM | TGI (T-47D breast): 89.5 µM | TGI (TK-10 renal): 9.68 µM | TGI (U251 CNS): 22.2 µM | TGI (UACC-257 melanoma): 30.5 µM | GI50 (UACC-62 melanoma): 11 µM | TGI (UACC-62 melanoma): 24.7 µM | TGI (UO-31 renal): 27.4 µM

CCCCCCCCCCOC1C(C(O)CNCCCN(C)C)OC2OC3(CCCCC3)OC21 (centres undefined)
TGI (786-0 renal): 3.37 µM | TGI (A549 NSCLC): 11.7 µM | TGI (ACHN renal): 8.09 µM | TGI (CAKI-1 renal): 4.21 µM | TGI (CCRF-CEM leukemia): 3.64 µM | TGI (COLO 205 colon): 3.43 µM | TGI (DU-145 prostate): 9.24 µM | TGI (EKVX NSCLC): 7.6 µM | TGI (HCC-2998 colon): 4.46 µM | TGI (HCT-116 colon): 3.53 µM | TGI (HCT-15 colon): 3.21 µM | TGI (HL-60(TB) leukemia): 3.59 µM | TGI (HOP-62 NSCLC): 4.04 µM | TGI (HOP-92 NSCLC): 5.33 µM | TGI (HS 578T breast): 6.53 µM | TGI (HT29 colon): 3.12 µM | TGI (IGROV1 ovarian): 3.82 µM | TGI (K-562 leukemia): 3.47 µM | TGI (KM12 colon): 2.91 µM | TGI (LOX IMVI melanoma): 2.68 µM | TGI (M14 melanoma): 3.55 µM | TGI (MALME-3M melanoma): 3.61 µM | TGI (MCF7 breast): 3.7 µM | TGI (MDA-MB-231 breast): 3.31 µM | TGI (MDA-MB-435): 3.56 µM | TGI (MDA-N): 3.37 µM | TGI (MOLT-4 leukemia): 3.87 µM | TGI (NCI-H226 lung): 36.7 µM | TGI (NCI-H23 lung): 3.01 µM | TGI (NCI-H460 lung): 3.44 µM | TGI (NCI-H522 lung): 3.56 µM | TGI (NCI/ADR-RES ovarian): 8.87 µM | TGI (OVCAR-3 ovarian): 3.59 µM | TGI (OVCAR-4 ovarian): 4.25 µM | TGI (OVCAR-5 ovarian): 3.71 µM | TGI (OVCAR-8 ovarian): 4.18 µM | TGI (PC-3 prostate): 6.7 µM | TGI (RPMI-8226 leukemia): 4.37 µM | TGI (RXF 393 renal): 3.7 µM | TGI (SF-268 CNS): 5.12 µM | TGI (SF-295 CNS): 3.52 µM | TGI (SK-MEL-2 melanoma): 4 µM | TGI (SK-MEL-28 melanoma): 3.1 µM | TGI (SK-MEL-5 melanoma): 3.34 µM | TGI (SK-OV-3 ovarian): 13.9 µM | TGI (SN12C renal): 5.19 µM | TGI (SNB-19 CNS): 3.24 µM | TGI (SNB-75 CNS): 0.681 µM | TGI (SR leukemia): 0.739 µM | TGI (SW-620 colon): 3.24 µM | TGI (T-47D breast): 5.42 µM | TGI (TK-10 renal): 6.55 µM | TGI (U251 CNS): 3.23 µM | TGI (UACC-257 melanoma): 10.8 µM | TGI (UACC-62 melanoma): 4.53 µM | TGI (UO-31 renal): 4.45 µM
